Experimental findings from patent US20220118170A1, “SYSTEMS, APPARATUS, AND METHODS FOR ADMINISTERING A SUBSTANCE” (Massachusetts Institute of Technology, priority 2015, published 2022) are described below.

Data set [1] relates to dextran sodium sulfate (DSS)-induced acute colitis. Description: Dextran sodium sulfate-induced murine colitis model, mesalamine enema with radial UMGID. It counts as in vivo, C57BL/6 mice. From the text:
Therefore, improvement in disease indices in this model as a result of ultrasound treatment would underscore the impact of UMGID. Given the colonic anatomy and the often circumferential nature of colitis involvement, it was hypothesized that radial UMGID would be most beneficial so as to direct the treatment over the largest area of inflamed tissue. […] The two bumps shown have a diameter of 3 mm and enhance radial ultrasound emission. […] Fifteen-week old, female C57BL/6 mice were purchased from Charles River Laboratories (Wilmington, Mass.) for the induction and treatment of dextran sodium sulfate (DSS)-induced colitis. Five animals were utilized per group. […] Each cage (group) was used as it was received and randomly assigned to experimental groups by the researchers performing the work. On day 1, blood was drawn from all mice and an initial weight of each animal was taken. Colitis was induced with 40-50 kDa dextran sulfate sodium salt (DSS) (available from, e.g., Affymetrix Inc., Santa Clara, Calif.). Starting on day 1, a 3% w/w DSS solution was administered in drinking water ad libitum. On days 3 and 5, the drinking solution was replaced with fresh DSS solution. […] The animals were monitored daily for weight, fecal consistency, and for the presence of fecal occult blood using Hemoccult cards (Beckman Coulter, Pasadena, Calif.). Fecal consistency and the presence of blood was scored based on previously published protocols. Specifically, stool consistency was scored as follows: (1) normal pellet-like feces, (2) pellet of stool easily crushed, (3) soft, watery stool with granules present, or (4) diarrhea. […] Animals with negative hemoccult results were scored (1). […] On day 14, a final weight was taken and fecal score assessed. […] Scores were determined according to previously published protocols with slight modification as follows in TABLE 3: Each tissue cross-section present on the microscope slide (n=2-6) was scored individually between 0-4 with a corresponding percentage involvement (rounded to the nearest quartile). […]

Details of data set [2]: species or system Yorkshire pigs. The settings on record: both, Yorkshire, pig, in vivo. On the procedure:
Before every experiment, the animal was fasted overnight.
In step 1402, the subject's rectum is cleared, for example, with a tap water enema. In the study, a clean rectum was confirmed by colonoscopy prior to treatment.
In step 1404, a medicated enema is instilled.
In step 1406, ultrasound is applied. In the study, Control and Treatment tests were performed on separate days. For Treatment tests, the ultrasound treatment was applied using a 20 kHz horn for 2 minutes at a 50% duty cycle at an intensity of 7.5 W/cm^2. For Control tests, the ultrasound probe was inserted into the colon, but not turned on (n=16).
In step 1408, the tissue is biopsied for further assessment. Colonic areas treated with ultrasound were biopsied using endoscopic biopsy forceps (available from, e.g., US Endoscopy, Mentor, Ohio) for drug delivery evaluation as well as histological analysis (n=13).
Each point represents one biological replicate (n=16 for Control, n=13 for Treatment).
Tissue was ground and mixed with phosphate buffered saline and precipitated with 10% trichloroacetic acid. The resulting supernatant was extracted with ethyl acetate. This extract was dried with anhydrous sodium sulfate, transferred to a glass tube, and evaporated to dryness under nitrogen. […] Finally, the sample was allowed to cool to room temperature and analyzed by GC/MS. […]

Data set [3] is described as follows: Effect of sonication on molecular structure (1H NMR). It counts as physicochemical. The conditions noted are these: 20 kHz ultrasound at highest intensity, 4 mg/mL in deuterated DMSO. On the procedure: Three biological replicates were performed. Unsonicated samples were used as the control. A Varian 500 (1H, 500 MHz) spectrometer was used to record 1H NMR spectra, then processed using Mnova NMR software (available from Mestralab Research, A Coruña, Spain). The 1H NMR spectra were referenced with residual non-deuterated solvent shifts (DMSO-d5=2.5 ppm). All shifts are reported in ppm. Note the disappearance of the volatile internal tetramethylsilane (TMS) standard after ultrasound treatment, which was carried out in an uncapped vial.
Deuterium exchange occurs as labile protons on the analyte exchange with the deuterated solvent in which it is dissolved. Replacement of protons by deuterium results in loss of signal, shown either as a reduction in the integration fractions or disappearance of the peak altogether. Other indications of deuterium exchange include a slight broadening of peak shape, a shift in peak location, and slight change in J coupling values.

A further data set has as its system blood-glucose. The settings on record: swine, enema containing 100U insulin with 1-minute 20 kHz ultrasound.
In the next data set the test system is colon tissue. Put plainly: Ex vivo delivery of radiolabeled permeants in Franz diffusion cells, colon. The conditions noted are these: colonic tissue, ultrasound treatment, on average.
Another data set concerns porcine small intestine. Description: Permeability in Side-Bi-Side diffusion cells. It counts as in vitro ADME. On the procedure: Side-Bi-Side™ diffusion cells (available from PermeGear, Hellertown, Pa.) with inner diameters of 9 mm were used to determine permeability. Tissue was placed between the two chambers and clamped together with the luminal side facing the donor chamber. Stir bars were added to both the donor and receiver chambers and agitated using the Bell-ennium™ 9-position magnetic stirrer.
The donor solution consisted of 2 μCi/mL 3H-glucose and 2 μCi/mL 14C-labeled inulin. Each donor chamber was filled with 3 mL of this solution and the receiver solution was filled with 3 mL fresh PBS. At 10-minute intervals over the course of one hour,100 μL samples were taken from the receiver chamber and replaced with an equal volume of fresh PBS. Then, 15 mL of Hionic Fluor was added to these samples and analyzed for tritiated decomposition and 14C decomposition. Seven repeats were performed for the Control samples, and 17 for the Treated samples. […]
The only unknown in Equation 3 is the pore size in λ. Therefore, P may be determined experimentally for each permeant to estimate the membrane pore size. […]
where A is the area of the membrane exposed to the permeant, Ci is the concentration of the permeant in the donor chamber, and dQi/dt is the slope of the plot of the permeant quantity in the receiver chamber versus time after the lag-phase. […]

Protocol for blood-glucose: Both female and male Yorkshire pigs between 45-80 kg in weight were used for one study based on the availability of sex from the vendor. […] Before every experiment, the animal was fasted overnight. Sedation was induced with intramuscular injection of Telazol® tiletamine, 5 mg/kg (available from Zoetis, Inc., Florham, N.J.), xylazine 2 mg/kg, and atropine 0.04 mg/kg. The animal was then intubated and sedation maintained with isoflurane (1-3% inhaled).
In addition to the preparation noted above, a central venous catheter was placed in the femoral vein using the Seldinger technique to allow for frequent blood sampling. […] A real-time readout was achieved using a TRUEtrack® blood glucose meter (available from Nipro Diagnostics Inc., Fort Lauderdale, Fla.). The remaining blood sample was saved in a blood collection tube with sodium fluoride and ethylenediaminetetraacetic acid (EDTA) to minimize further glucose metabolism. All data shown represents the blood-glucose values quantified from the blood collection tubes, which was evaluated in a blinded fashion.
The blood-glucose was monitored for at least 40 minutes, depending on the experiment's effect on blood-glucose. When necessary, hypoglycemia was corrected with intravenous boluses of 50% dextrose (only needed when ultrasound treatment took place). […]
Protocol for colon tissue: Solutions of the four compounds at a concentration of 1 mg/mL were prepared with a radiolabel content ranging from about 0.001% to about 2.5% depending on the stock solution's radiolabel content.
GI tissue (e.g., tongue, esophagus, stomach, intestine, and colon tissue) from Yorkshire pigs was procured within 20 minutes of animal euthanization and stored at about 4° C. Drug delivery testing took place within 6 hours of euthanization. Upon delivery, the fresh porcine tissue was washed with PBS and excess fat was carefully dissected away. With the exception of tongue tissue, the full thickness of the tissue was used for testing. The tissue was sectioned into approximately 2 cm-by-2 cm pieces and kept hydrated with PBS. The variability in thickness of tongue tissue prevented mounting of the entire thickness in the diffusion chambers. […]
Low-frequency (e.g., less than 100 kHz) ultrasound was utilized and administered directly to tissue and compared to controls consisting of untreated tissue. Delivery efficacy was assessed by quantifying the delivery of radiolabeled permeants into and through tissue utilizing Franz diffusion cells. […] Unless otherwise noted, delivered quantities represent the total amount of permeant delivered over this area. […]

In the case of `Nc1ccc(O)c(C(=O)O)c1` [mesalamine, 5-aminosalicylic acid], the “Total fecal score on day 14” value is listed as “significantly elevated” in data set [1] (mesalamine enema alone QD), “below 4” in data set [1] (mesalamine enema with ultrasound treatment QD) and “below 4” in data set [1] (mesalamine enema with ultrasound treatment QOD). The “Drug content in tissue biopsies (limit of detection)” value in data set [2] is below 50 ng/g tissue. In addition, the “Increase in delivery to tissue biopsies using ultrasound compared to tissue not treated” value in data set [2] was 22.4 fold. For the same compound, in data set [3], the “Molecular structure / chemical stability after sonication (1H NMR)” value is given as “chemical stability”.
Regarding insulin aspart, the Blood-glucose response entry in the data set with blood-glucose was “robust hypoglycemic response”.
Turning to inulin, the “Amount in the tissue compared to that in the receiver chamber” value in the data set with colon tissue came to 90 fold. Besides, in the data set on porcine small intestine (tissue not treated with ultrasound), the Permeability was determined as 1.36e-05 ± 6.77e-06 cm/min. The Average permeability in the data set on porcine small intestine (ultrasound treated samples, 20 kHz for 2 minutes at 50% duty cycle) was determined as 2.94e-05 ± 1.36e-05 cm/min.
